Data set [1] is filed under the species Oryctolagus cuniculus.
Description: Tested for ex vivo distribution in cornea after topical administration in albino rabbits (Ocular tissue concentration after 1 hr)
Data set [2] is filed under the species Oryctolagus cuniculus. This is another data set of the same source.
Description: Tested for in vivo IOP-lowering of normotensive albino rabbits after topical administration at the specified interval (90 min) at pH 6.5
The species entered for data set [3] is Oryctolagus cuniculus. This is another data set of the same source.
Description: Tested for ex vivo distribution in aqueous humor after topical administration in albino rabbits (Ocular tissue concentration after 1 hr)
Data set [4] relates to Oryctolagus cuniculus. Description: Tested for in vivo IOP-lowering of glaucomatous rabbits after topical administration at the specified interval( 60 min) at pH 6.5. It is filed as functional.
Data set [5] is filed under the species Oryctolagus cuniculus. This is another data set of the same source.
Description: In vitro transcorneal accession rate in rabbit corneal denuded epithelium
Data set [6] is filed under the species Oryctolagus cuniculus. The source holds these as a separate data set.
Description: Tested for ex vivo distribution in ciliary process after topical administration in albino rabbits (Ocular tissue concentration after 1 hr)
Data set [7] is described as follows: Solubility in pH 7.4 Buffer, at 25 Degree C. The class given is physicochemical.
For data set [8], the species on record is Oryctolagus cuniculus. This is another data set of the same source.
Description: In vitro transcorneal accession rate in rabbit corneal intact epithelium
Data set [9] concerns the target T1, Carbonic anhydrase 1 (Homo sapiens, UniProt P00915).
Description: Inhibition of human recombinant carbonic anhydrase I (CA1)
Data set [10] has as its system Oryctolagus cuniculus. The experiment in a line: Tested for in vivo IOP-lowering of glaucomatous rabbits after topical administration at the specified interval( 30 min) at pH 6.5. It is filed as functional.
The species entered for data set [11] is Oryctolagus cuniculus. The source holds these as a separate data set.
Description: Tested for ex vivo distribution in ciliary process after topical administration in albino rabbits (Ocular tissue concentration after 2 hr)
For data set [12], the species on record is Oryctolagus cuniculus. The source holds these as a separate data set.
Description: Tested for in vivo IOP-lowering of normotensive albino rabbits after topical administration at the specified interval (60 min) at pH 6.5
Data set [13] addresses T2, Carbonic anhydrase 4 (Bos taurus, UniProt Q95323).
T2 sequence (Q95323 whole entry): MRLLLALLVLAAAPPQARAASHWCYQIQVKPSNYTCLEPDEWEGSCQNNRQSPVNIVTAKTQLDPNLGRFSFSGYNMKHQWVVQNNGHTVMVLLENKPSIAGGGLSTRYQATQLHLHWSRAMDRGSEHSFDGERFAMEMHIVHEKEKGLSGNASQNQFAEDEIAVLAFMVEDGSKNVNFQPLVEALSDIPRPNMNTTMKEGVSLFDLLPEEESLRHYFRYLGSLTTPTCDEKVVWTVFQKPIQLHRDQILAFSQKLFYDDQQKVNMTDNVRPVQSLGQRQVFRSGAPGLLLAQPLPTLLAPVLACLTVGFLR
Description: Inhibition of bovine carbonic anhydrase IV (CA4) from bovine lung microsomes

In data set [14] the test system is Oryctolagus cuniculus. Description: Tested for in vivo IOP-lowering of glaucomatous rabbits after topical administration at the specified interval( 90 min) at pH 6.5. The class given is functional.
The species entered for data set [15] is Oryctolagus cuniculus. The source holds these as a separate data set.
Description: Tested for ex vivo distribution in aqueous humor after topical administration in albino rabbits (Ocular tissue concentration after 2 hr)
The species named for data set [16] is Oryctolagus cuniculus. This is another data set of the same source.
Description: Tested for ex vivo distribution in cornea after topical administration in albino rabbits (Ocular tissue concentration after 2 hr)
The conditions of data set [17]: octanol/water.
Description: Partition coefficient (logD) (chloroform/buffer)
Data set [18] is filed under the species Oryctolagus cuniculus. This is another data set of the same source.
Description: Tested for in vivo IOP-lowering of normotensive albino rabbits after topical administration at the specified interval (30 min) at pH 6.5
The target in data set [19] is T1, Carbonic anhydrase 1. Description: Tested for inhibition of human (cloned) isoenzyme carbonic anhydrase 1.

pKi: −log10 of the molar value. ≈ marks a conversion by molar mass, not a printed value.

For orientation: solubility means the dissolved amount per volume that the medium holds. Read a low solubility as little dissolved substance. As a reminder, the pKi is the negative decadic logarithm of the Ki, by convention in mol/L. A high value points to a small Ki. For orientation: logD means the decadic logarithm of the distribution of all forms, ionised or not, between an organic phase and buffer at a given pH.

T1 sequence (P00915 whole entry): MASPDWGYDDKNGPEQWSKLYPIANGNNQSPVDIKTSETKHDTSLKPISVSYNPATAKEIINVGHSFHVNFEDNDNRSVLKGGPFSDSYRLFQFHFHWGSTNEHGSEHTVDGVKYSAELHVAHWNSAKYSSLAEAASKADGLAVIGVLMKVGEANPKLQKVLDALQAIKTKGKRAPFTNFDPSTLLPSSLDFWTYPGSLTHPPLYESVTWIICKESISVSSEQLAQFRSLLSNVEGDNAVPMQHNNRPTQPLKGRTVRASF

As to `Cn1nc(S(N)(=O)=O)sc1=NS(=O)(=O)c1c(F)c(F)c(F)c(F)c1F`, the Drug concentration was found to be 150 µM in data set [1]; 296 µM in data set [3]; 38 µM in [6]; 7.1 µM in [11]; 39 µM in data set [15]; 36 µM in [16]. Also, the “Delta IOP” value in [2] amounted to 9.1 mmHg; in data set [4] it was 14.2 mmHg; in data set [10], 7.1 mmHg; in [12] it was 11.3 mmHg; in [14], 16.9 mmHg; in [18], 4.7 mmHg. Besides, the Kin worked out at 8800 h⁻¹ in data set [5] and 4900 h⁻¹ in data set [8]. In addition, the solubility in [7] worked out at 66 mM (≈ 28 mg/mL). In addition, the pKi in [9] was 6.60; in data set [13], 8.05. This molecule also displayed a logD in [17] of 2.347.
In the case of `NS(=O)(=O)c1ccc(NNS(=O)(=O)C(F)(F)C(F)(F)C(F)(F)C(F)(F)C(F)(F)C(F)(F)C(F)(F)C(F)(F)F)cc1`, the pKi is 6.07 in data set [13] and 5.77 in data set [19].

Values taken from ChEMBL document CHEMBL1133531, “Carbonic anhydrase inhibitors: perfluoroalkyl/aryl-substituted derivatives of aromatic/heterocyclic sulfonamides as topical intraocular pressure-lowering agents with prolonged duration of action” (J Med Chem, 2000).
